From patent US20230194505A1, “DETERMINING DRUG EFFECTS USING COMBINATION OF MEASUREMENTS” (Organos, Inc., priority 2020, published 2023)
Like-named read-outs stand apart in the source and are kept apart here.

Assays:
human cardiomyocytes = settings: cited from earlier work
dog cardiomyocytes = settings: 50 nM, paced at 1 Hz, data from Jost et al. 2013; cited from earlier work
zebrafish cardiomyocytes = settings: 1 μM, data from Nemtsas et al. 2010; cited from earlier work
[1] = tested on: rabbit ventricular myocyte; settings: data from Baczkó et al. 2016, cited from earlier work
hiPSC-CMs = assay: Conduction velocity computed from measurements of the extracellular potential in a collection of hiPSC-CMs; assay type: cell-based, human; settings: doses 1-10 μM
Experimental: From the U data 430, we include the value at each time point and each electrode (see (14)), and the conduction velocity is computed using the time points in which U crosses 0 mV after the peak in different electrodes (see (15) and FIG. 1). Given that U is measured at each electrode, another metric can be the time tcv for the U data 430 to go back to zero. Another metric uses the measurements at each of the time points (shown as separate dots 432; a sum of the square of the differences (or absolute value) between the model output and measured values can be summed.
where cv denotes the conduction velocity (in cm/s) computed from U recorded in the electrodes. More specifically, the conduction velocity is computed as the distance between the center of the two electrodes marked as a and b in FIG. 1 divided by the time between U crosses 0 mV after the peak in these two electrodes (see FIG. 4). The two electrodes used could be any two electrodes in the simulation.
One of the advantages of including measurements of the extracellular potential in addition to optical measurements of V and Ca in the inversion procedure is that the extracellular measurements can be used to estimate the conduction velocity of the cell collection. This information could be useful for determining drug effects on the INa current (see FIG. 6). […]

[2] = 50 nM, paced at 1 Hz, data from Jost et al. 2013
[3] = 1 μM, data from Bussek et al. (B)
[4] = 1 μM, data from Jost et al. 2005 (J)
[5] = 30 μM, data from Baczkó et al. 2016 (B)
[6] = 30 μM, data from Orvos et al. 2019 (O)

Structure (SMILES): CN(CCOc1ccc(NS(C)(=O)=O)cc1)CCc1ccc(NS(C)(=O)=O)cc1 [dofetilide]
- APD50, Human, drug measured (change vs control) (human cardiomyocytes; [2]): +33.3%
- APD90, Human, drug measured (change vs control) (human cardiomyocytes; [2]): +44.3%
- APD50, Dog, drug measured (change vs control) (dog cardiomyocytes): +17.5%

Structure (SMILES): Cc1cccc(CCN2CCC(C(=O)c3ccc(NS(C)(=O)=O)cc3)CC2)n1 [E-4031]
- APD50, Human, drug measured (B) (change vs control) (human cardiomyocytes; [3]): +27.7%
- APD90, Human, drug measured (B) (change vs control) (human cardiomyocytes; [3]): +31.2%
- APD50, Human drug measured (J) (change vs control) (human cardiomyocytes; [4]): +54.2%
- APD90, Human drug measured (J) (change vs control) (human cardiomyocytes; [4]): +65.1%
- APD50, Zebrafish drug measured (change vs control) (zebrafish cardiomyocytes): +38.7%
- APD90, Zebrafish drug measured (change vs control) (zebrafish cardiomyocytes): +24.1%

Structure (SMILES): CC(C)NCC(O)c1ccc(NS(C)(=O)=O)cc1 (stereo not drawn) [sotalol]
- APD50, Human, drug measured (B) (change vs control) (human cardiomyocytes; [5]): +32.3%
- APD90, Human, drug measured (B) (change vs control) (human cardiomyocytes; [5]): +37.5%
- APD50, Human, drug measured (O) (change vs control) (human cardiomyocytes; [6]): +20.6%
- APD90, Human, drug measured (O) (change vs control) (human cardiomyocytes; [6]): +28.2%
- APD50, Rabbit, drug measured (change vs control) ([1]; 10 μM): +21.2%
- APD90, Rabbit, drug measured (change vs control) ([1]; 10 μM): +19.6%
- APD50, Rabbit, drug measured (change vs control) ([1]; 52 μM): +54.3%
- APD90, Rabbit, drug measured (change vs control) ([1]; 52 μM): +54.1%

Structure (SMILES): O=C(NCC1CCCCN1)c1cc(OCC(F)(F)F)ccc1OCC(F)(F)F (stereo not drawn) [Flecainide]
- Effect of increasing drug dose on conduction velocity (hiPSC-CMs): the conduction velocity is decreased
